The source of these data is ChEMBL document CHEMBL1156531, “Designer enediynes generate DNA breaks, interstrand cross-links, or both, with concomitant changes in the regulation of DNA damage responses” (2007).

Calls of active or inactive are those of the source. No cut-off for these calls is given here. A value given as a limit tells only on which side of the number the result lay.

Assay [1] deals with Bacillus amyloliquefaciens. As to the kind of experiment: Induction of interstrand cross-link in BamH1-linearized pBR322 plasmid DNA assessed as amount of double-stranded DNA remaining at 13 nM after 4 hrs under anaerobic cell-free condition.
Assay [2] has as its system Bacillus amyloliquefaciens. As to the kind of experiment: Induction of interstrand cross-link in BamH1-linearized pBR322 plasmid DNA assessed as amount of double-stranded DNA remaining at 130 nM after 4 hrs under anaerobic cell-free condition.
Assay [3] can be described thus: Induction of double-strand break in BamH1-linearized pBR322 plasmid DNA assessed as linear DNA under aerobic condition relative to C-1027. The settings on record: Bacillus amyloliquefaciens.
For assay [4], the system named is Bacillus amyloliquefaciens. As to the kind of experiment: Induction of interstrand cross-link in BamH1-linearized pBR322 plasmid DNA assessed as amount of double-stranded DNA remaining after denaturation relative to C-1027.
In assay [5] the test system is BSC-1. As to the kind of experiment: Induction of double-strand DNA break in SV40-infected african green monkey BSC1 cells assessed as amount of linear DNA at 8 nM after 4 hrs. In kind it is cell-based. The settings on record: Betapolyomavirus macacae.
The test system of assay [6] is BSC-1. Put plainly: Induction of DNA interstand cross-link in SV40-infected african green monkey BSC1 cells assessed as amount of double-stranded DNA remaining after denaturation at 40 nM after 4 hrs. The conditions noted are these: Betapolyomavirus macacae. Type of assay: cell-based.
Assay [7] has as its system BSC-1. Put plainly: Increase in DNA interstand cross-link in SV40-infected african green monkey BSC1 cells assessed as amount of double-stranded DNA remaining after denaturation at 200 nM after 4 hrs. Type of assay: cell-based. The settings on record: Betapolyomavirus macacae.
The subject of assay [8] is HCT-116. Put plainly: Induction of DNA interstand cross-link in human HCT116 cells after 4 hrs by comet assay. Type of assay: cell-based.
Assay [9] relates to HCT-116. As to the kind of experiment: Induction of double-strand DNA break in human HCT116 cells after 4 hrs by comet assay. Type of assay: cell-based.
In assay [10] the target is T1, Serine/threonine-protein kinase Chk1 (Homo sapiens) (UniProt O14757).
T1 sequence (whole entry): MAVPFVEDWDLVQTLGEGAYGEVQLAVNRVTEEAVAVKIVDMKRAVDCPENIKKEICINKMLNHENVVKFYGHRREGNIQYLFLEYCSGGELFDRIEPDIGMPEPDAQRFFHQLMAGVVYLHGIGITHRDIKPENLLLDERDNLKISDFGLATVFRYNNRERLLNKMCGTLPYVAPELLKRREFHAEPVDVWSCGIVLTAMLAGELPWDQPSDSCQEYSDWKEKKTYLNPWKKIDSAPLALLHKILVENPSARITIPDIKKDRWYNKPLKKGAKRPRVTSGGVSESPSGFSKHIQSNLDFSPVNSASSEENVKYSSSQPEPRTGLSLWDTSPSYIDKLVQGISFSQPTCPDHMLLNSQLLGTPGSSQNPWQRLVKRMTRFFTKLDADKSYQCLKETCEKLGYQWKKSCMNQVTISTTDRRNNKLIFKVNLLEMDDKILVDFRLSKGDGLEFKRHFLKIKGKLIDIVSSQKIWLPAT
Put plainly: Decrease in Chk1-Ser-345 phosphorylation in ataxia telangiectasia mutated and Rad3 related-deficient human HCT116 cells at 1 nM after 1 hr by Western blotting. Type of assay: cell-based. The settings on record: HCT-116.

Assay [11] deals with HCT-116. As to the kind of experiment: Ratio of IC50 for mock siRNA-treated human HCT116 cells to IC50 for siATR (ataxia telangiectasia mutated and Rad3 related)-treated human HCT116 cells after 3 days. In kind it is functional.
Assay [12] deals with BSC-1. Put plainly: Induction of double-strand DNA break in SV40-infected african green monkey BSC1 cells assessed as amount of linear DNA at 10 uM after 4 hrs. Type of assay: cell-based. The settings on record: Betapolyomavirus macacae.
The test system of assay [13] is BSC-1. Put plainly: Induction of double-strand DNA break in SV40-infected african green monkey BSC1 cells assessed as amount of linear DNA after 4 hrs. In kind it is cell-based. The conditions noted are these: Betapolyomavirus macacae.
The test system of assay [14] is BSC-1. Put plainly: Induction of DNA interstand cross-link in SV40-infected african green monkey BSC1 cells assessed as amount of double-stranded DNA remaining after denaturation after 4 hrs. Type of assay: cell-based. The settings on record: Betapolyomavirus macacae.
Assay [15] addresses T1, Serine/threonine-protein kinase Chk1 (Homo sapiens). Put plainly: Decrease in Chk1-Ser-345 phosphorylation in ataxia telangiectasia mutated and Rad3 related-deficient human HCT116 cells at 3 nM after 1 hr by Western blotting. Type of assay: cell-based. The conditions noted are these: HCT-116.

As to `C=C1Oc2cc(OC)cc(C(=O)O[C@H]3COC(=O)C[C@H](N)c4cc(O)c(c(Cl)c4)O[C@@H]4C#C/C=C/3C#CC3=CC=C[C@@]34O[C@@H]3OC(C)(C)[C@@H](N(C)C)[C@@H](O)[C@H]3O)c2NC1=O`, the Activity in assay [1] is 13%; in assay [2], over 30%; in assay [3], 1%; in assay [4], 1%; in assay [5], 20%. The result in [6], in assay [7], in [8] and in [10] was Active. In [9], the result was inactive. Besides, in [11], the “Ratio IC50” value turned out to be 1.1.

As to `C=C1Oc2cc(OC)cc(C(=O)O[C@H]3COC(=O)C[C@H](N)c4ccc(c(Cl)c4)O[C@@H]4C#C/C=C/3C#CC3=CC=C[C@@]34O[C@@H]3OC(C)(C)[C@@H](N(C)C)[C@@H](O)[C@H]3O)c2NC1=O`, in assay [3], the Activity is 0.033%.

Take `C=C1Oc2cc(O)cc(C(=O)O[C@H]3COC(=O)C[C@H](N)c4cc(O)c(c(Cl)c4)O[C@@H]4C#C/C=C/3C#CC3=CC=C[C@@]34O[C@@H]3OC(C)(C)[C@@H](N(C)C)[C@@H](O)[C@H]3O)c2NC1=O`: the Activity was found to be 0.02% in [3] and 1% in assay [4]. Besides, the outcome in [12] and in assay [9] was inactive. Besides, the outcome in assay [7] and in assay [8] was Active. Besides, in assay [11], the “Ratio IC50” value came to 2.5.

Take `C=C1Oc2cc(OC)cc(C(=O)O[C@H]3COC(=O)C[C@H](N)c4ccc(c(O)c4)O[C@@H]4C#C/C=C/3C#CC3=CC=C[C@@]34O[C@@H]3OC(C)(C)[C@@H](N(C)C)[C@@H](O)[C@H]3O)c2NC1=O`: the Activity was 0.25% in assay [3], under 0.003% in assay [4] and “Dose-dependent effect” in assay [13]. In addition, the result in [14] was inactive. For the same compound, in [15], the result was Active. The “Ratio IC50” value in assay [11] was 1.3.
